Experimental data published in patent publication US8163700B2, “Inhibitors of myelin-associated glycoprotein (MAG) activity for regulating neural growth and regeneration” (Research Foundation of City University of New York, priority 2002, dated 2012).
Substitutions are numbered along the chain they refer to. Names and notes keep the numbering of the source. “Also recorded” adds a separate entry of the source.

B1: MAG(L431D)-Fc: murine MAG-Fc with point mutation L431D, Ig domain 5 (protein, listed as Mus sp.)
chain: MIFLATLPLFWIMISASRGGHWGAWMPSTISAFEGTCVSIPCRFDFPDELRPAVVHGVWYFNSPYPKNYPPVVFKSRTQVVHESFQGRSRLLGDLGLRNCTLLLSTLSPELGGKYYFRGDLGGYNQYTFSEHSVLDIVNTPNIVVPPEVVAGTEVEVSCMVPDNCPELRPELSWLGHEGLGEPTVLGRLREDEGTWVQVSLLHFVPTREANGHRLGCQAAFPNTTLQFEGYASLDVKYPPVIVEMNSSVEAIEGSHVSLLCGADSNPPPLLTWMRDGMVLREAVAKSLYLDLEEVTPGEDGVYACLAENAYGQDNRTVELSVMYAPWKPTVNGTVVAVEGETVSILCSTQSNPDPILTIFKEKQILATVIYESQLQLELPAVTPEDDGEYWCVAENQYGQRATAFNLSVEFAPIILLESHCAAARDTVQCDCVVKSNPEPSVAFELPSRNVTVNETEREFVYSERSGLLLTSILTIRGQAQAPPRVICTSRNLYGTQSLELPFQGAHRLMWAKIGPVGAVVAFAILIAIVCYITQTRRKKNVTESSSFSGGDNPHVLYSPEFRISGAPDKYESREVSTRDCH
modifications: Fc fusion
B2: MAG(R485D)-Fc: murine MAG-Fc with point mutation R485D, Ig domain 5 (protein, listed as Mus sp.)
chain: B1 chain with D431L, R485D
modifications: Fc fusion
B3: MAG(K435E)-Fc: murine MAG-Fc with point mutation K435E, Ig domain 5 (protein, listed as Mus sp.)
chain: B1 chain with D431L, K435E
modifications: Fc fusion
B4: MAG(E445K)-Fc: murine MAG-Fc with point mutation E445K, Ig domain 5 (protein, listed as Mus sp.)
chain: B1 chain with D431L, E445K
modifications: Fc fusion
B5: MAG(R491E)-Fc: murine MAG-Fc with point mutation R491E, Ig domain 5/TM (protein, UniProt P20917 20-516, looked up, variant R491E)
extracellular domain: GHWGAWMPSTISAFEGTCVSIPCRFDFPDELRPAVVHGVWYFNSPYPKNYPPVVFKSRTQVVHESFQGRSRLLGDLGLRNCTLLLSTLSPELGGKYYFRGDLGGYNQYTFSEHSVLDIVNTPNIVVPPEVVAGTEVEVSCMVPDNCPELRPELSWLGHEGLGEPTVLGRLREDEGTWVQVSLLHFVPTREANGHRLGCQAAFPNTTLQFEGYASLDVKYPPVIVEMNSSVEAIEGSHVSLLCGADSNPPPLLTWMRDGMVLREAVAKSLYLDLEEVTPGEDGVYACLAENAYGQDNRTVELSVMYAPWKPTVNGTVVAVEGETVSILCSTQSNPDPILTIFKEKQILATVIYESQLQLELPAVTPEDDGEYWCVAENQYGQRATAFNLSVEFAPIILLESHCAAARDTVQCLCVVKSNPEPSVAFELPSRNVTVNETEREFVYSERSGLLLTSILTIRGQAQAPPRVICTSENLYGTQSLELPFQGAHRLMWAKIGP
modifications: extracellular domain Fc fusion
notes: murine MAG-Fc with point mutation R491E, Ig domain 5/TM

Experiments:
[1] = tested on: cerebellar neurons on CHO cells expressing MAG; test: Neurite outgrowth on MAG-expressing CHO cells in the presence of MAG peptides (FIGS. 4 and 5); assay type: cell-based; conditions: for attenuation of inhibition of neurite outgrowth by MAG: peptide 20 μM, 18 hours, FIG. 5; for effect on the ability of MAG-expressing cells to inhibit neurite outgrowth / neurite length relative to neurites extended without peptide or with MAG Igd4 peptides: peptide 15 μM, overnight, FIG. 4; for neurite length relative to neurites extended without peptide or with MAG Igd4 peptides: neurons on MAG-expressing cells
Experimental: FIG. 4 Inhibition of neurite outgrowth from cerebellar neurons by MAG; peptides Cerebellar neurons were isolated (Example 1) and grown overnight on a monolayer of control-transfected CHO cells (not shown) or CHO cells expressing MAG in the absence (striped bar) or the presence (grey bars) of MAG peptides (15 μM) derived from MAG Ig-like domain 4 or 5. Neurons were stained for GAP-43 antigen and neurite length was measured. Results are shown as number of neurons in each treatment having neurites longer than two times the length of the cell body.
FIG. 5 Inhibition of neurite outgrowth from cerebellar neurons by MAG peptides Cerebellar neurons were isolated (Example 1) and grown for 18 hrs on a monolayer of control-transfected CHO cells (R2) or CHO cells expressing MAG in the absence of a peptide (MAG) or in the presence of a peptide derived from sialoadhesin Ig-like domain 5 (non-MAG “control peptide”) or a MAG peptide (M433 or M462 at 20 μM) derived from MAG Ig-like domain 5. Neurons were stained for GAP-43 antigen and neurite length was measured and the average length was calculated for 180-200 neurons (+/−SEM).
Confluent monolayers of control, MAG-, truncated MAG- or chimeric MAG-Sn-expressing CHO cells were established over a 24-hour (h) period in individual chambers of an 8-well tissue culture slide (Lab-Tek). Co-cultures were established as described previously (Doherty et al., Nature, 343, pp. 464-66 (1990); Neuron, 5, pp. 209-19 (1990); Mukhopadhyay et al., Neuron, 13, pp. 757-67 (1994)) by adding approximately 5000 cerebellar neurons to the CHO monolayers. Culture medium was SATO containing 2% FCS. After periods of time as indicated, the co-cultures were fixed for 30 minutes (min) with 4% paraformaldehyde and permeabilized with ice-cold methanol for 2 min. The cells were then blocked for 30 min with DMEM containing 10% FCS and incubated for 2 h with a rabbit polyclonal antibody against the neuronal marker GAP43 (1:4000). Cells were washed three times with PBS-BSA (2%) and then incubated for 30 min at room temperature with a biotinylated donkey anti-rabbit Ig (1:300, Amersham), washed three times, and incubated with streptavidin-conjugated Texas Red (1:300, Amersham) for 30 min. After three more washes, the slides were mounted in Permfluor (Baxter) and viewed with a Zeiss fluorescent microscope. The length of the longest neurite for each GAP43-positive neuron was determined using the Biological Detection System image analysis program (Pittsburgh).
Peptides corresponding to amino acid residues […] of MAG (MAG(343-371)), amino acid residues 363-397 (MAG(363-397)), amino acid residues 394-428 (MAG(394-428)), amino acid residues 422-451 (MAG(422-451)), amino acid residues 442-471 (MAG(442-471)), and amino acid residues 461-498 (MAG(461-498)) were synthesized. Peptides were obtained from SynPep Corp. (Dublin, Calif.). MAG(343-371), MAG(363-397) and MAG(394-428) correspond to amino acid residues from the Ig4 domain of MAG. MAG(422-451), MAG(442-471) and MAG(461-498) corresponds to amino acid residues from the Ig5 domain of MAG. […] Results are shown in FIG. 4 (and are represented as number of neurons with processes longer than 2-times the cell diameter). […] Results are shown in FIG. 5 (and are represented as average neurite length for 180-200 neurons).

[2] = tested on: cerebellar neurons; test: Neurite outgrowth on L1-Fc substrate in the presence of soluble MAG-Fc chimeras (FIG. 3); assay type: cell-based; conditions: soluble protein 25 μg/ml, 18 hours, compared to control chimera
Experimental: FIG. 3 Inhibition of neurite outgrowth from cerebellar neurons by MAG-Fc Derivatives Cerebellar neurons were isolated (Example 1) and plated onto a growth promoting substrate of L1 protein (Example 4). A control MUC-Fc fusion (clear bar), wild-type MAG-Fc (striped bar) and MAG-Fc derivatives having point mutations in MAG Ig-like domains 4 or 5 (grey bars) were constructed (Example 4) and added in soluble form to neurons (25 μg/ml). After 18 hours, cultures were fixed and stained for GAP-43 antigen. Neurite length was measured and the average length was calculated for 180-200 neurons (+/−SEM).
Individual wells of an eight-chamber tissue culture plastic slide (Lab-Tek, Nuc. Inc.) were incubated with 0.3 nil of 16.6 μg/ml poly-1-lysine in sterile water for at least one hour under sterile conditions. Each well was washed twice with 400 μl of a 0.1M sodium bicarbonate solution, pH 9.6, and then received 0.3 ml of 0.1M sodium bicarbonate solution, pH 9.6, containing 15 μg/ml goat anti-human IgG (Fc-specific) monoclonal antibody (Sigma). The wells were incubated for 2 hours (h) at 37° C., and washed three times with 0.4 ml of ice-cold DMEM. Each well then received 0.3 nil of DMEM containing 40 μg/ml of L1-Fc and was incubated for 2-4 h at 37° C. The welts were washed twice DMEM.
Cerebellar neurons (post-natal days 2-7) were dissociated by trypsinization as described in Example 1, except that the dissociated neurons were resuspended in 5 ml of SATO medium containing 2% dialyzed FBS. To an individual well coated with a monolayer of L1-Fc as described above, 5.0×10^4 cerebellar neurons were added, followed by addition of one of the mutant MAG-Fc or MUC18-Fc chimeric soluble protein described above at a concentration of 25 μg/ml. Neurons were cultured for 18 hours at 37° C., and then fixed and stained for GAP43 essentially as described in Example 2. Neurite length was measured for 180-200 neurons.

Molecule	effect on the ability of MAG-expressing cells to inhibit neurite outgrowth [1]	inhibition of neurite outgrowth (in words) [2]	other results
M433: peptide of MAG amino acid residues 433-457 (SEQ ID NO: 20) (VVKSNPEPSVAFELPSRNVTVNETE)			attenuation of inhibition of neurite outgrowth by MAG [1]: even more strongly attenuated inhibition by MAG
M462: peptide of MAG amino acid residues 462-486 (SEQ ID NO: 24) (YSERSGLLLTSILTLRGQAQAPPRV)			attenuation of inhibition of neurite outgrowth by MAG [1]: even more strongly attenuated inhibition by MAG
MAG(422-451): peptide of MAG amino acid residues 422-451 (SEQ ID NO: 15) (AAARDTVQCLCVVKSNPEPSVAFELPSRNV)	strongly attenuated inhibition by MAG		neurite length relative to neurites extended without peptide or with MAG Igd4 peptides [1]: at least twice as long
MAG(442-471): peptide of MAG amino acid residues 442-471 (SEQ ID NO: 16) (VAFELPSRNVTVNETEREFVYSERSGLLLT)	strongly attenuated inhibition by MAG		neurite length relative to neurites extended without peptide or with MAG Igd4 peptides [1]: at least twice as long
MAG(461-498): 38 amino acid peptide of MAG residues 461-498 (SEQ ID NO: 23) (VYSERSGLLLTSILTLRGQAQAPPRVICTSRNLYGTQS)	no apparent effect on inhibition of neurite outgrowth by MAG; also recorded: does not reduce the ability of wild-type MAG to inhibit neurite outgrowth		
B1		none	
B2		none	
B3		none	
B4		none	
B5		none	
